Measurements reported in patent EP2820422B1, “ABCG2 TRANSPORTER ASSAY” (priority 2012, dated 2013).
Each block holds one compound with its values, some of them ahead of it.

Tests used:
[1] = target: T1, human ABCG2 protein (Homo sapiens, UniProt Q9UNQ0); experiment: ABCG2-ATPase activity measurement (vanadate sensitive) in cholesterol loaded, isolated Sf9 membrane vesicles; format: biochemical; parameters: removing the full-length human ABCG2 cDNA (G482 variant) from pcDNA3.1/ABCG2 with SacI digestion; made in house; host or cells: Sf9 insect cells (baculovirus)
T1 sequence (Q9UNQ0 1-655): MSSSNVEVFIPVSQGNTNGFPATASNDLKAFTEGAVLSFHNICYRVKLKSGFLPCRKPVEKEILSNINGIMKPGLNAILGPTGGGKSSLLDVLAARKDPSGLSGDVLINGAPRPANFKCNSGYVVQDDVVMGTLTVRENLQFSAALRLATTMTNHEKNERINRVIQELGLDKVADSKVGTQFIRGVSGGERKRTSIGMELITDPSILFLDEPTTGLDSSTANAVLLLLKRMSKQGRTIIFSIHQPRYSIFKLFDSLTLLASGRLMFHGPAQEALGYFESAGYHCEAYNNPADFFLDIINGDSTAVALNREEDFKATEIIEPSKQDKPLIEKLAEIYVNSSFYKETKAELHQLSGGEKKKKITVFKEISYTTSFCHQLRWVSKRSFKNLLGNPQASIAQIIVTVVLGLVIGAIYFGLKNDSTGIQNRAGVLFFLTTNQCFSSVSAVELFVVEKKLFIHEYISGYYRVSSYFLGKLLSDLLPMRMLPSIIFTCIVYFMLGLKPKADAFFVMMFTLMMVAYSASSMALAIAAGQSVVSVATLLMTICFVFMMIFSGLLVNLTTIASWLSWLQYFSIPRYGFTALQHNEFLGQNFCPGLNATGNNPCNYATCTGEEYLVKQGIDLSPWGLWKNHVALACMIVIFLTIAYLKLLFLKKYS
Description: Thus, for direct measurements with ABCG2 in Sf9 membrane vesicles the membrane is loaded with cholesterol. After homogenization the sample is incubated with 2.5 mg/ml cholesterol-cyclodextrin complex (Cyclolab, Budapest) for 20 minutes at +4°C then followed by centrifugation steps.
ABCG2-Sf9 membrane vesicles (10 ug total protein) or isolated ABCG2 (0.2 ug) and separately added liposomes or reconstituted ABCG2-proteoliposome (0.2 ug) was added to assay mixture (final volume 150 ul) and preincubated for 5 or 20 minutes at 37°C when isolated ABCG2 and liposomes are used.
Reaction is started by adding Mg-ATP pH 7.0 to the reaction mixture at 3 mM and stopped after 20 or 30 minutes (for purified ABCG2) by 5% SDS.
Self-degradation of ATP is checked in each measurement by ABCG2 free samples.
Assay mixture was adapted for different setup with different type of ABCG2 samples. Assay buffer was 40 mM TRIS-MOPS pH 7.0 with 0.5 mM EGTA, 50 mM […] and 2 mM DTT.
For 'ABCG2 in Sf9 membrane vesicle' setup 5 mM Na-azide, 1 mM ouabain, were given to inhibit Sf9 intrinsic ATPases. ABC specific ATPase was measured as vanadate sensitive ATPase after determining the vanadate (1.3 mM) insensitive background.
A concentration set of K2HPO4 (10-50 ug/sample) is used as standard.

[2] = target: T1, human ABCG2 protein; conditions: cited from earlier work

Compound: C[C@H](CCC(=O)NCCC[N+](C)(C)CCCS(=O)(=O)[O-])[C@H]1CC[C@H]2[C@@H]3[C@H](O)C[C@@H]4C[C@H](O)CC[C@]4(C)[C@H]3C[C@H](O)[C@]12C [CHAPS, 3-[(3-Cholamidopropyl)dimethylammonio]-1-propanesulfonate]
effect of modifier agent on basal ABCG2-ATPase activity ([1]; cholesterol loaded Sf9 membrane vesicles, concentrations below the CMC, drug stimulation (5 uM quercetin) not altered, Figures 3 and 4): sigificantly decreased

Compound: COc1ccc2c3c([nH]c2c1)[C@H](C=C(C)C)N1C(=O)[C@@H]2CCCN2C(=O)[C@@H]1C3 [FTC]
Inhibition (+ modifying agent 0.1% CHAPS) [1]: 70% | Inhibition (Control) [1]: 70% | inhibition of basal vanadate-sensitive ATPase activity of ABCG2 [2]: fully inhibited

effect on the ABCG2-ATPase activity ([1]; isolated Sf9 cell membrane preparations, first an activation, then an inhibition, Figure 6): biphasic effect
Compound: Cc1cn(-c2cc(NC(=O)c3ccc(C)c(Nc4nccc(-c5cccnc5)n4)c3)cc(C(F)(F)F)c2)cn1 [Nilotinib]
